Consider 11 compounds from patent US5686486A, “4-hydroxy-benzopyran-2-ones and 4-hydroxy-cycloalkyl[b]pyran-2-ones useful to treat retroviral infections” (priority 1995, dated 1997).

The test system of data set [1] is HIV-1. The note with it: single dose; cited from earlier work.
Data set [2] deals with HIV. The settings on record: cited from earlier work.
Data set [3] concerns p55 Processing in vVk-1 infected CV-1 Cells. The experiment in a line: CV-1 Cell Assay: inhibition of p55 processing in vVK-1 infected CV-1 cells (p24 levels). In kind it is cell-based. The settings on record: Cercopithecidae, CV-1, read-out: CV-1 Cell Assay % Inhib. On the procedure: Inhibition of p55 Processing in vVk-1 infected CV-1 Cells. CV-1 cells are seeded at 2×10^5 cells per well in 24-well Costar dishes and infected 4 to 6 hours later with vVK-1 at 5 plaque-forming units (PFU) per cell. Each compound is dissolved in Dulbecco's Modified Eagles medium (DMEM) containing 2.5% fetal bovine serum and is added to duplicate wells at the indicated final concentration 2 hours after virus addition. After 24 hours, the culture medium is removed and the monolayer washed with 1 mL of phosphate buffered saline (PBS), and the cells lysed by the addition of 0.1 mL of loading buffer (62.5 mM Tris (hydroxymethyl) aminomethane (Tris), pH 6.8, 2.3% sodium dodecyl sulfate (SDS), 5% β-mercaptoethanol, and 10% glycerol). The cell lysates are collected individually, placed in boiling water for 3 minutes, and then 0.025 mL of each sample is subjected to electrophoresis on 12% SDS-polyacrylamide gels. The proteins are electroblotted onto nitrocellulose and analyzed by protein immunoblotting. The primary antibodies are sheep antibody to p24 (International Enzyme, Inc., Fallbrook, Calif.) and the secondary antibody is alkaline-phosphatase-conjugated rabbit antibody to sheep immunoglobulin G (Kirkegaard & Perry Laboratories, Gaithersburg, Md.). The levels of immunoreactive proteins are quantified by densitometry (Bio-Rad, Model 260) with the accompanying 1-D Analyst Software. Inhibition refers to the mean percent decrease in p24 levels determined from the duplicate drug-treated samples compared to the nondrug-treated controls. […] Val-Ile-Amp (also known as N-[1-(cyclohexylmethyl)-2,3-dihydroxy-5-methyl-4-[[[2-methyl-1-[[(2-pyridinylmethyl)amino]carbonyl]butyl]-amino]carbonyl]hexyl]-α-[[(1-naphthalenyloxy)acetyl]amino]-, [1S-[1R*(R*),2S*,3S*,4S*(1R*,2R*)]]-1H-imidazole-4-propanamide) (which was disclosed in International Publication Number WO 87/05302, published 11 Sep. 1987) was also determined in each experiment.

Data set [4] addresses T1, HIV-1 protease (Human immunodeficiency virus type 1 group M subtype B, UniProt P04585). Briefly: biochemical. The note with it: for IC50: HIV-1 Protease IC50; for inhibition at 0.098 µM: read-out: HIV-1 Protease % Inhib, dose 0.098 uM; for inhibition at 0.78 µM: read-out: HIV-1 Protease % Inhib, dose 0.780 uM; for inhibition at 1.56 µM: read-out: HIV-1 Protease % Inhib, dose 1.560 uM; for inhibition at 12.5 µM: read-out: HIV-1 Protease % Inhib, dose 12.500 uM; for inhibition at 25 µM: read-out: HIV-1 Protease % Inhib, dose 25.000 uM; for inhibition at 50 µM: read-out: HIV-1 Protease % Inhib, dose 50.000 uM; for inhibition at 100 µM: read-out: HIV-1 Protease % Inhib, dose 100.000 uM; for inhibition at 0.37 µM: read-out: HIV-1 Protease % Inhib, dose 0.370 uM; for inhibition at 1.1 µM: read-out: HIV-1 Protease % Inhib, dose 1.100 uM; for inhibition at 30 µM: read-out: HIV-1 Protease % Inhib, dose 30.000 uM. A digest of the protocol:
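Biotinylated, FITC-labeled peptide substrate (20 μl of 0.2 μM) incubated with HIV-1 protease (10 μl of 0.1 μM) and compound in 0.1 M sodium acetate pH 5.5, 1.0 M NaCl, 0.05% NP-40, 1 h, room temperature, dark. Streptavidin beads then capture uncleaved substrate; filtered labeled product read by fluorescence, giving percent inhibition.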

Data set [5] has as its system HIV-1IIIB. Briefly: inhibition of retroviral replication in HIV-1IIIB infected human T-cell lines (MT4 and H9). In kind it is cell-based. The note with it: e.g. How it is done: Several compounds of the present invention, such as N-[3-[cyclopropyl(5,6,7,8,9,10-hexahydro-4-hydroxy-2-oxo-2H-cycloocta[b]pyran-3-yl)methyl]phenyl]-4-fluorobenzenesulfonamide and 4-cyano-N-[3-[cyclopropyl(5,6,7,8,9,10-hexahydro-4-hydroxy-2-oxo-2H-cycloocta[b]pyran-3-yl)methyl]phenyl]-benzenesulfonamide were tested in known human cell lines, such as human T-cell lines, e.g., MT4 and H9, which were infected with HIV-1IIIB, and certain of these compounds were further tested in peripheral blood mononuclear cells (PBMC), which were infected with HIV-1JRCSF (a clinical isolate).

Data set [6] addresses T1, HIV-1 protease. Briefly: biochemical. The settings on record: read-out: HIV-1 FITC KI. A digest of the protocol: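 Ki from two-fold serial inhibitor dilutions (24–48 concentrations) with 40 nM HIV-1 protease stock and 200 μM substrate stock, 90 min at room temperature; stopped with avidin beads. Reference inhibitor run in parallel; Ki by nonlinear least-squares fit.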
The test system of data set [7] is HIV protease. The note with it: cited from earlier work.

The structures appear in SMILES notation. Where “and” joins values, the source holds several entries; their conditions need not be identical. Equal values may be shown once. Square brackets hold non-standard residues; d marks the D form. Peptide text beside a SMILES is read from it. * marks the point of attachment. Sta = CC(C)C[C@H](N)[C@@H](O)CC(=O)O; Isovaleryl = CC(C)CC(=O)*

On to `O=c1cc(O)c2ccccc2o1` [4-hydroxy-coumarin], for which the “effect on HIV-1 replication and viral transmission” value in data set [1] is given as “inhibitory effect”.

In the case of `Cc1cn([C@H]2C[C@H](N=[N+]=[N-])[C@@H](CO)O2)c(=O)[nH]c1=O` [AZT, 3'-azido-3'-deoxy-thymidine], in data set [2] (humans), the “clinical effect in HIV infection/AIDS” value is “decrease the mortality and frequency of opportunistic infections associated with AIDS”.

Turning to `CCCC(c1ccccc1)c1c(O)c2ccccc2oc1=O` (centres unmarked) [Example 10, 4-Hydroxy-3-(1-phenylbutyl)-coumarin], in data set [3], the inhibition at 100 µM is 0% and the inhibition at 300 µM worked out at 57%. In data set [4], the IC50 came to 1710 nM, the inhibition at 0.098 µM was less than 10%, the inhibition at 0.78 µM is 33.2% and the inhibition at 1.56 µM was found to be 53.6%. In data set [4], the inhibition at 12.5 µM was 91.5%, the inhibition at 25 µM was found to be 88%, the inhibition at 50 µM is 102% and the inhibition at 100 µM worked out at 109%. Moreover, the inhibition at 0.196 µM in data set [4] (read-out: HIV-1 Protease % Inhib, dose 0.196 uM) was less than 10%.

With `CCCCC(c1ccccc1)c1c(O)c2ccccc2oc1=O` (centres unmarked) [Example 11, 4-Hydroxy-3-(1-phenylpentyl)-coumarin], in data set [3], the inhibition at 100 µM came out at 64% and the inhibition at 300 µM stood at 78%. In data set [4], the IC50 is 1890 nM, the inhibition at 0.098 µM was less than 10%, the inhibition at 0.78 µM is 27.1% and the inhibition at 1.56 µM is 58.1%. In data set [4], the inhibition at 12.5 µM turned out to be 82%, the inhibition at 25 µM worked out at 95.8%, the inhibition at 50 µM is 90.7% and the inhibition at 100 µM is 105%. Also, the inhibition at 0.195 µM in data set [4] (read-out: HIV-1 Protease % Inhib, dose 0.195 uM) was less than 10%. In addition, the inhibition at 0.39 µM in data set [4] (read-out: HIV-1 Protease % Inhib, dose 0.390 uM) came to 19.2%. In data set [4] (read-out: HIV-1 Protease % Inhib, dose 3.130 uM), the inhibition at 3.13 µM is 63.1%. The inhibition at 6.25 µM in data set [4] (read-out: HIV-1 Protease % Inhib, dose 6.250 uM) was 70.4%. Further, in data set [4] (read-out: HIV-1 Protease % Inhib, dose 200.000 uM), the inhibition at 200 µM was determined as 107%.

For the compound `N#Cc1ccc(S(=O)(=O)Nc2cccc(C(c3c(O)c4c(oc3=O)CCCCCC4)C3CC3)c2)cc1` (centres unmarked) [Example 262, 4-Cyano-N-[3-[cyclopropyl(5,6,7,8,9,10-hexahydro-4-hydroxy-2-oxo-2H-cycloocta[b]pyran-3-yl)methyl]phenyl]-benzenesulfonamide], the “HIV-1 Protease % Inhib” value in data set [4] (dose 0.123 uM) was found to be 83.32%. Besides, the “HIV-1 Protease % Inhib” value in data set [4] (dose 3.300 uM) was determined as 121.87%. Further, in data set [4] (dose 10.000 uM), the “HIV-1 Protease % Inhib” value came to 119.5%. In data set [4], the inhibition at 0.37 µM was found to be 103%, the inhibition at 1.1 µM was 113% and the inhibition at 30 µM amounted to 115%. Moreover, the “inhibition of retroviral replication” value in data set [5] is “found to inhibit retrovital replication”. In addition, the Ki in data set [6] is 1.4 nM and 0.44 nM and 1.01 nM and 0.6 nM.

Turning to `O=c1oc2c(c(O)c1C(c1cccc(NS(=O)(=O)c3ccc(F)cc3)c1)C1CC1)CCCCCC2` (centres unmarked) [Example 268, N-[3-[Cyclopropyl(5,6,7,8,9,10-hexahydro-4-hydroxy-2-oxo-2H-cycloocta[b]pyran-3-yl)methyl]phenyl]-4-fluoro-benzenesulfonamide], the inhibition at 0.123 µM in data set [4] (read-out: HIV-1 Protease % Inhib, dose 0.123 uM) turned out to be 71.2%. Further, in data set [4], the inhibition at 0.37 µM is 88%, the inhibition at 1.1 µM came to 96.2% and the inhibition at 30 µM came to 101%. Moreover, the inhibition at 3.3 µM in data set [4] (read-out: HIV-1 Protease % Inhib, dose 3.300 uM) is 97.6%. Moreover, in data set [4] (read-out: HIV-1 Protease % Inhib, dose 10.000 uM), the inhibition at 10 µM amounted to 101%. Besides, the “inhibition of retroviral replication” value in data set [5] is recorded as “found to inhibit retrovital replication”.

For `CC(C)CC(=O)N[C@H](C(=O)N[C@H](C(=O)N[C@@H](CC(C)C)[C@@H](O)CC(=O)N[C@@H](C)C(=O)N[C@@H](CC(C)C)[C@@H](O)CC(=O)O)C(C)C)C(C)C` [Pepstatin A] (Isovaleryl-VV[Sta]A[Sta]-OH), in data set [7], the HIV protease inhibition entry is “inhibitor of HIV-I protease”.

In the case of `Nc1ccn([C@H]2CC[C@@H](CO)O2)c(=O)n1` [ddC], in data set [2] (humans), the limiting toxicity entry was “peripheral neuropathy which is reversible at low doses”.

As for `O=c1[nH]cnc2c1ncn2[C@H]1CC[C@@H](CO)O1` [ddI], the effect on liver entry in data set [2] (human, in vivo) was “stimulate hepatic glycolysis leading to irreversible liver damage”. For the same compound, the limiting toxicity result in data set [2] (humans) was “peripheral neuropathy and pancreatitis”.

Regarding `O=c1ccc2ccc(O)cc2o1` [umbelliferone], in data set [1], the “effect on HIV-1 replication and viral transmission” value is “inhibitory effect”.

For the compound `CC(=O)CC(c1ccccc1)c1c(O)c2ccccc2oc1=O` (stereo not drawn) [warfarin, 3-α-phenyl-β-acetylethyl-4-hydroxycoumarin], the “effect on HIV-1 replication and viral transmission” value in data set [1] is “inhibitory effect”. In addition, the HIV protease inhibition entry in data set [7] is “displayed HIV protease inhibition”.
